Data taken from patent publication US20240239781A1, “1H-PYRAZOLE DERIVATIVES AS SIGMA LIGANDS” (ACONDICIONAMIENTO TARRASENSE, priority 2021, published 2024).

Columns and labels:
human σ1 receptor = molecular target: T1, human σ1 receptor (Homo sapiens, UniProt Q99720); assay: Human σ1 receptor radioligand assay ([3H](+)-pentazocine, transfected HEK-293 membranes); settings: class scale, read-out: Binding σ-1 Ki
T1 construct: expressed in transfected cells; host or cells: HEK-293
Outline: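 Compounds were tested at a single 1 or 10 μM concentration (% inhibition) or at five concentrations to give Ki. They competed with 5 nM [3H](+)-pentazocine for transfected HEK-293 membranes (7 μg) in 50 mM Tris-HCl pH 8 at 37° C for 120 minutes. Nonspecific binding was set with 10 μM haloperidol, and a filtration scintillation read-out was used.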

human σ2/TMEM97 receptor = molecular target: T2, human σ2/TMEM97 receptor (Homo sapiens, UniProt Q5BJF2); assay: Binding assay to human σ2/TMEM97 receptor ([3H]-DTG, transfected HEK-293 membranes); settings: class scale, read-out: Binding σ-2 Ki
T2 construct: expressed in transfected cells; host or cells: HEK-293
T2 sequence (Q5BJF2 whole entry): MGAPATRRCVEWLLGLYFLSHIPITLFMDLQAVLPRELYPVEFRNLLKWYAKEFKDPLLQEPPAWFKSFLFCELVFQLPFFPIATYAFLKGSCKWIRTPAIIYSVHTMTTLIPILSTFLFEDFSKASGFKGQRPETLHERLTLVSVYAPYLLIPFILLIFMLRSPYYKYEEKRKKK
Outline: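 Competition against 10 nM [3H]-DTG (Tris-HCl 50 mM, pH 8.0, 25 °C, 120 min) using 15 μg transfected HEK-293 membrane protein, with 10 μM haloperidol defining NSB. Bound radioactivity counted after filtration; results as single-point % inhibition (1 or 10 μM) or five-point Ki.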

T1 sequence (Q99720 whole entry): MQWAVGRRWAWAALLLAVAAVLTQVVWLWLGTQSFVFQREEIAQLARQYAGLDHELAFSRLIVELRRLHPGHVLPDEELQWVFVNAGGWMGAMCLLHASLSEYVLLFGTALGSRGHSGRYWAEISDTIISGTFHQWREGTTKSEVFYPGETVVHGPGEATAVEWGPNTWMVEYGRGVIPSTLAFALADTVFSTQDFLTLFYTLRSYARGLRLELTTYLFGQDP

Structure (SMILES)	Ki (human σ1 receptor) [nM]	Ki (human σ2/TMEM97 receptor) [nM]
Cc1cc(-c2nn(C)c(Cl)c2C(=O)N2CCC[C@@H](NCCC(C)C)C2)no1 [Example 108, (R)-(5-Chloro-1-methyl-3-(5-methylisoxazol-3-yl)-1H-pyrazol-4-yl)(3-(isopentylamino)piperidin-1-yl)methanone]	100 to 500	> 1000
Cc1cc(-c2nn(C)c(Cl)c2C(=O)NC2CC3(CCN(CCC(C)(C)C)CC3)C2)no1 [Example 106, 5-Chloro-N-(7-(3,3-dimethylbutyl)-7-azaspiro[3.5]nonan-2-yl)-1-methyl-3-(5-methylisoxazol-3-yl)-1H-pyrazole-4-carboxamide]	100 to 500	< 100
Cc1cc(-c2nn(C)c(Cl)c2CN2CCC3(CCN(CCC(C)(C)C)CC3)CC2)no1 [Example 53, 3-(5-Chloro-4-((9-(3,3-dimethylbutyl)-3,9-diazaspiro[5.5]undecan-3-yl)methyl)-1-methyl-1H-pyrazol-3-yl)-5-methylisoxazole]	100 to 500	< 100
CCCN(CCC)CC1CCN(Cc2c(-c3cc(C)on3)nn(C)c2Cl)C1 (stereo not drawn) [Example 46, N-((1-((5-Chloro-1-methyl-3-(5-methylisoxazol-3-yl)-1H-pyrazol-4-yl)methyl)pyrrolidin-3-yl)methyl)-N-propylpropan-1-amine]	100 to 500	> 1000
Cc1cc(-c2nn(C)c(Cl)c2CN2CCC(NCCC(C)(C)C)C2)no1 (stereo not drawn) [Example 13, 1-((5-Chloro-1-methyl-3-(5-methylisoxazol-3-yl)-1H-pyrazol-4-yl)methyl)-N-(3,3-dimethylbutyl)pyrrolidin-3-amine]	100 to 500	100 to 500

Second part, the compound after the results:

Ki (human σ1 receptor) [nM]	Ki (human σ2/TMEM97 receptor) [nM]	Structure (SMILES)
100 to 500	100 to 500	Cc1cc(-c2nn(C)c(Cl)c2C(=O)NC2CC3(CCN(CC(C)(C)C)CC3)C2)no1 [Example 154, 5-Chloro-1-methyl-3-(5-methylisoxazol-3-yl)-N-(7-neopentyl-7-azaspiro[3.5]nonan-2-yl)-1H-pyrazole-4-carboxamide]
> 1000	< 100	Cc1cc(-c2nn(C)c(Cl)c2C(=O)N2CC[C@]3(C2)C[C@H](NCCC(C)(C)C)C3)no1 [Example 169, (5-Chloro-1-methyl-3-(5-methylisoxazol-3-yl)-1H-pyrazol-4-yl)((2s,4r)-2-((3,3-dimethylbutyl)amino)-6-azaspiro[3.4]octan-6-yl)methanone]
100 to 500	< 100	Cc1cc(-c2nn(C)c(Cl)c2C(=O)NC2CCN(CCC(C)(C)C)CC2)no1 [Example 166, 5-Chloro-N-(1-(3,3-dimethylbutyl)piperidin-4-yl)-1-methyl-3-(5-methylisoxazol-3-yl)-1H-pyrazole-4-carboxamide]
< 100	100 to 500	Cc1cc(-c2nn(C)c(Cl)c2CCN2CCCC[C@H](NCCC(C)C)C2)no1 [Example 119, (S)-1-(2-(5-Chloro-1-methyl-3-(5-methylisoxazol-3-yl)-1H-pyrazol-4-yl)ethyl)-N-isopentylazepan-3-amine]
< 100	< 100	CCc1cc(-c2nn(CC)c(Cl)c2C(=O)NC2CCC3(CC2)CN(CCC(C)(C)C)C3)no1 [Example 137, 5-Chloro-N-(2-(3,3-dimethylbutyl)-2-azaspiro[3.5]nonan-7-yl)-1-ethyl-3-(5-ethylisoxazol-3-yl)-1H-pyrazole-4-carboxamide]
> 1000	< 100	Cn1cc(-c2nn(C)c(Cl)c2C(=O)N2CCCC3(CCN(CCC(C)(C)C)CC3)C2)cn1 [Example 135, (5-Chloro-1,1′-dimethyl-1H,1′H-[3,4′-bipyrazol]-4-yl)(9-(3,3-dimethylbutyl)-2,9-diazaspiro[5.5]undecan-2-yl)methanone]
500 to 1000	< 100	CCn1nc(-c2cc(C)on2)c(C(=O)N[C@H]2CC[C@H](NCCC(C)(C)C)CC2)c1Cl [Example 200, 5-Chloro-N-((1r,4r)-4-((3,3-dimethylbutyl)amino)cyclohexyl)-1-ethyl-3-(5-methylisoxazol-3-yl)-1H-pyrazole-4-carboxamide]
